According to paper PMC1257591, “In Vitro Inhibition of Human Hepatic and cDNA-Expressed Sulfotransferase Activity with 3-Hydroxybenzo[a]pyrene by Polychlorobiphenylols” (Environmental Health Perspectives, 2005):
Where “and” joins values, the source holds several entries; their conditions need not be identical. Equal entries are not always repeated.

How the values were obtained:
[1] = target: HL cytosol sulfotransferase (Homo sapiens, UniProt P50225); assay: Kinetics of 3-OH-BaP sulfonation by human liver cytosol (fluorimetric assay of BaP-3-SO4 formation); assay type: biochemical
Sequence of HL cytosol sulfotransferase (P50225 whole entry): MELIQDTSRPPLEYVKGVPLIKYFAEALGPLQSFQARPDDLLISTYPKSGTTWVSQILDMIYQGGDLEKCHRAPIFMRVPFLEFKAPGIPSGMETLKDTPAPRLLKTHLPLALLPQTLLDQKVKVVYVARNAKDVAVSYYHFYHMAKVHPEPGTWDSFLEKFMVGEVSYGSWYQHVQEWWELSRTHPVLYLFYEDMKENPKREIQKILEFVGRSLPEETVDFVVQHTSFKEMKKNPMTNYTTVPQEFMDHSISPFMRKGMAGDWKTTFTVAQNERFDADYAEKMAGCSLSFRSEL
Method: F.P. Guengerich (Vanderbilt University) kindly donated the samples of human liver, which were procured from organ donors ([Guengerich 1995]). We prepared liver cytosolic fractions from four livers by standard methods and stored aliquots at −80°C until use ([Wang et al. 2004]). We used three or four of these cytosol fractions in each experiment.
(§1) We determined SULT activity with 3-OH-BaP as substrate by a fluorimetric assay of BaP-3-SO4 product formation, as described previously ([Wang et al. 2004]). […] Duplicate tubes were prepared for each incubation condition. We examined the kinetics of sulfonation in three liver cytosol fractions by systematically varying the concentration of 3-OH-BaP or PAPS. When the variable substrate was 3-OH-BaP, we used 12 concentrations in the range from 0.035 to 2.00 μM, and the concentration of PAPS was kept constant at 10 μM. When we varied PAPS, we used 7 concentrations from 0.157 to 10.0 μM and kept the concentration of 3-OH-BaP constant at 0.100 μM.
(§2) We calculated the enzyme kinetic parameters from studies with variable concentrations of 3-OH-BaP using nonlinear regression analysis and GraphPad 4.0 software (GraphPad Software, San Diego, CA). We selected the built-in Michaelis-Menten equation for most analyses. Where we found evidence of 3-OH-BaP substrate inhibition, we fit the data into an equation derived from a two-substrate model ([Zhang et al. 1998]): […]
(§3) This equation denoted the constant for binding of the first substrate (S) molecule as Km and the second substrate molecule as Ki. V1 is the maximum rate for the noninhibitory substrate concentration range, and V2 is the minimum rate in the inhibitory substrate concentration range

SULT1A1*2 = target: T1, SULT1A1*2 (Homo sapiens, UniProt P50225, R213H); assay: Kinetics of 3-OH-BaP sulfonation by expressed SULT1A1*2; assay type: biochemical; details: expressed SULT1A1*2
T1 construct: purchased PanVera (Madison, WI); host or cells: Sf-9
T1 sequence (P50225 whole entry R213H): as the sequence (P50225 whole entry) above, with R213H counted along it
From the text: (§4) The expression of human SULT1A1*1, SULT1A3, SULT1B1, and SULT1E1 in Escherichia coli has been described previously ([Dajani et al. 1998]; [Wang et al. 1998]). We grew E. coli cells containing the respective sulfotransferase genes as described previously ([Falany et al. 1990], [1994]), and prepared 100,000g supernatant fractions for use in inhibition studies and for partial purification of the SULT enzymes. We purchased expressed SULT1A1*2 cytosolic extract from PanVera (Madison, WI) and used it as supplied.
as §1
We determined the kinetic parameters for 3-OH-BaP sulfonation by partially purified preparations of the cDNA-expressed SULT isozymes under incubation conditions similar to those used for liver cytosol. For SULT1A1*1 and -1A1*2, we used seven substrate concentrations in the range from 5 to 100 nM; for SULT1E1 we used […] 3-OH-BaP concentrations from 15.6 to 1,000 nM; and for SULT1A3 and 1B1 we used seven concentrations of 3-OH-BaP from 0.25 to 5.0 μM.
as §2, §3

SULT1A1*1 = target: T2, SULT1A1*1 (Homo sapiens, UniProt P50225); assay: Kinetics of 3-OH-BaP sulfonation by partially purified cDNA-expressed SULT1A1*1; assay type: biochemical
T2 construct: made in house; host or cells: Escherichia coli
From the text: as §4
(§5) The 100,000g supernatant fractions of SULT1A1*1, SULT1A3, SULT1B1, and SULT1E1 were partially purified by chromatographic methods ([Falany et al. 1990], [1994]). […] We analyzed active fractions by SDS-PAGE ([Laemmli 1970]) to assess the purity of each SULT enzyme. We stained the gels with Coomassie R-250 reagent and determined the percentage of protein present as each respective SULT enzyme by scanning densitometry.
(§6) We determined SULT activity with 3-OH-BaP as substrate by a fluorimetric assay of BaP-3-SO4 product formation, as described previously ([Wang et al. 2004]). […]
(§7) We determined the kinetic parameters for 3-OH-BaP sulfonation by partially purified preparations of the cDNA-expressed SULT isozymes under incubation conditions similar to those used for liver cytosol. […]

SULT1A3 [2] = target: T3, SULT1A3 (Homo sapiens, UniProt P0DMM9); assay: Kinetics of 3-OH-BaP sulfonation by partially purified cDNA-expressed SULT1A3; assay type: biochemical; details: concentration range up to 5 μM
T3 construct: made in house; host or cells: Escherichia coli
T3 sequence (P0DMM9 whole entry): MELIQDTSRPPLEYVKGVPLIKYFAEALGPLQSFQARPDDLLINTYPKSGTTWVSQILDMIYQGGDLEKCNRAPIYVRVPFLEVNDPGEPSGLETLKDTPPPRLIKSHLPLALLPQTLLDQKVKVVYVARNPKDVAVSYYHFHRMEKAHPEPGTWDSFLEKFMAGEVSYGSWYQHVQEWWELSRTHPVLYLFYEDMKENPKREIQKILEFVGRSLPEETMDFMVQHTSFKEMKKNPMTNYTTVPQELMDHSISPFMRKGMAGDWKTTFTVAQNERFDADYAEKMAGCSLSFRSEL
From the text: as §4, §5, §6, §7

SULT1B1 = target: T4, SULT1B1 (Homo sapiens, UniProt O43704); assay: Kinetics of 3-OH-BaP sulfonation by partially purified cDNA-expressed SULT1B1; assay type: biochemical; details: concentration range up to 5 μM
T4 construct: made in house; host or cells: Escherichia coli
T4 sequence (O43704 whole entry): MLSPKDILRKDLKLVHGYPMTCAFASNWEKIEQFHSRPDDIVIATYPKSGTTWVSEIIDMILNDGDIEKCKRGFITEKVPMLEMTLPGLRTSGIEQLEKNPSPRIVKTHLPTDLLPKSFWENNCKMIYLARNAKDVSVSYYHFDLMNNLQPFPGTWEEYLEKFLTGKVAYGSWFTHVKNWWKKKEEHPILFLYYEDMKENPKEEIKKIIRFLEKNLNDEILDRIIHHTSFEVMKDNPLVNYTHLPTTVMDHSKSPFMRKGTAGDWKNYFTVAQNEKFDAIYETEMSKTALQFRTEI
From the text: as §4, §5, §6, §7

SULT1E1 [3] = target: T5, SULT1E1 (Homo sapiens, UniProt P49888); assay: Kinetics of 3-OH-BaP sulfonation by partially purified cDNA-expressed SULT1E1; assay type: biochemical
T5 construct: made in house; host or cells: Escherichia coli
T5 sequence (P49888 1-294): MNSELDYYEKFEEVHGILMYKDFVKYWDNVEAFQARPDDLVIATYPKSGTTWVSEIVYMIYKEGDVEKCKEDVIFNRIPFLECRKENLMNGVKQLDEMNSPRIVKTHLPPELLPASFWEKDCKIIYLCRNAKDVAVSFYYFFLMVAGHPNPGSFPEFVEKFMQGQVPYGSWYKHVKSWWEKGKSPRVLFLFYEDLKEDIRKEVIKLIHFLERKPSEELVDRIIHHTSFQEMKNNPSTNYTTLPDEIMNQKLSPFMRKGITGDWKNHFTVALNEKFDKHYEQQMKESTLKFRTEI
From the text: as §4, §5, §6, §7

[4] = target: HL cytosol 3-OH-BaP sulfotransferase (Homo sapiens, UniProt P50225); assay: Kinetics of 3-OH-BaP sulfotransferase inhibition by 4′-OH-CB112 in HL cytosol; assay type: biochemical; details: 0 μM B5, mean ± SD n = 3
Sequence of HL cytosol 3-OH-BaP sulfotransferase (P50225 whole entry): as the sequence (P50225 whole entry) above
Method: To study the type of inhibition produced by OH-PCBs, we used 4′-OH-CB112 (B5) as a model inhibitor. We prepared four sets of assay tubes containing HL cytosol and varying amounts of 3-OH-BaP from 35 to 150 nM: one set (control) contained no 4′-OH-CB112; the other sets contained 0.25 μM, 0.5 μM, or 1.0 μM 4′-OH-CB112.
We calculated the effects of OH-PCBs on 3-OH-BaP SULT activity as percentage inhibition compared with the controls without an inhibitor. We obtained IC50 values by fitting log OH-PCB concentration and percent control activity to a sigmoidal curve. We examined the relationships between IC50 and physicochemical properties of the OH-PCBs by linear correlation analysis. We calculated the inhibitory constant (Ki) from the kinetic studies with 4′-OH-CB112 by means of Dixon plots and plots of Km/Vmax against inhibitor concentration ([Cornish-Bowden 1995]).

SULT1A1 = test system: SULT1A1; set-up: method as in Ma et al. 2003; details: ref Ma et al. 2003; cited from earlier work
SULT1E1 [5] = test system: SULT1E1; set-up: method as in Ma et al. 2003; details: ref Ma et al. 2003; cited from earlier work
SULT1A3 [6] = test system: SULT1A3; set-up: method as in Ma et al. 2003; details: ref Ma et al. 2003; cited from earlier work
[7] = HL 2 cytosol (heterozygous SULT1A1*1/*2)
[8] = HL 3 cytosol (homozygous SULT1A1*2)

Row | SMILES | V1 ([1]; HL 1 cytosol (homozygous SULT1A1*1), maximum rate, noninhibitory substrate range) [pmol/min/mg protein] | V2 ([1]; HL 1 cytosol (homozygous SULT1A1*1), minimum rate, inhibitory substrate range) [pmol/min/mg protein] | V1 [1, 7] [pmol/min/mg protein] | V2 [1, 7] [pmol/min/mg protein] | V1 [1, 8] | V2 [1, 8] [pmol/min/mg protein] | 3-OH-BaP concentration resulting in a decrease in activity (substrate inhibition) ([1]; HL cytosol) [µM] | V1 ([1]; HL cytosol, mean ± SD of three livers) [pmol/min/mg protein] | V1 (SULT1A1*2) | V2 (SULT1A1*2) [pmol/min/mg protein] | Ki (SULT1A1*2; substrate inhibition) [nM] | 3-OH-BaP concentration showing substrate inhibition (SULT1A1*1) [µM] | substrate inhibition (SULT1A3 [2]) | substrate inhibition (SULT1B1) | 3-OH-BaP concentration showing substrate inhibition (SULT1E1 [3]) [µM] | Vmax (3-OH-BaP sulfotransferase activity) [4] [B pmol/min/mg protein] | Km (SULT1A1) [µM] | Km (SULT1E1 [5]) [µM] | Km (SULT1A3 [6]) [µM]
1 | Oc1ccc2ccc3c4ccccc4cc4ccc1c2c43 [Compound 3-OH-BaP, 3-hydroxybenzo[a]pyrene] | 121 | 2 | 93.0 | 38.50 | 94 pmol/min/mg protein and 94.4 pmol/min/mg protein | 31.0 | > 0.15 | 102 ± 15.8 | 4,400 pmol/min/mg protein | 290 | 160 | > 0.15 | did not exhibit substrate inhibition | did not exhibit substrate inhibition | > 0.15 | 69.1 ± 8.0 |  |  | 
2 | Oc1ccc2ccc3cccc4ccc1c2c34 [1-hydroxypyrene] |  |  |  |  |  |  |  |  |  |  |  |  |  |  |  |  | 0.008 | 0.021 | 0.8
